Values joined by “and” are separate entries in the source; they are usually repeats but may differ in a detail not shown here. Identical values can stand only once.

The test system of one series is plasma protein. Nature of the series: Plasma protein binding. The settings on record: in animals and humans. Format: in vitro ADME.
In series [1] the target is Other mutations of Abl kinase that arise during development of resistance (Homo sapiens, UniProt P00519). Nature of the series: Inhibition of other Abl kinase resistance mutations (biochemical assays). The settings on record: read-out: inhibition range, other mutations of Abl kinase. The text has this: (§1) Detailed assay methodologies can be found in the relevant references cited herein, or in the KinaseProfiler Service Assay Protocols (v54, 2011) available from EMD Millipore (www.emdmillipore.com), or from the KinomeScan website (www.kinomescan.com), as appropriate. (For a more detailed description of KINOMEscan's assay technology, see: Fabian et al. A small molecule-kinase interaction map for clinical kinase inhibitors. Nat. Biotechnol. 23, 329-336 (2005)). A summary is provided below.
(§2) KinaseProfiler™ assays (EMD Millipore Corp. Billerica, Mass., USA) are […] with purified or partially-purified human kinases. Most of the KinaseProfiler™ assays are conducted in 20 mM MOPS, 1 mM EDTA, 0.01% Brij-35, 5% Glycerol, 0.1% b-mercaptoethanol, 1 mg/mL BSA. The assay involves the transfer of ^32P from γ-^32P-ATP to the target peptide, followed by washing and trapping of the labeled peptide on a filter. The concentration of γ-^32P-ATP used was at the established Km for ATP.

The next series concerns the target Flt1 (Homo sapiens, UniProt P17948). Kind of series: KinaseProfiler kinase activity assay. More on the design: purchased EMD Millipore Corp. (KinaseProfiler service). The conditions noted are these: ATP at Km. Format: biochemical. The text has this:
(§3) A summary is provided below.

The next series concerns the target Flt3 (D835Y) (Homo sapiens, UniProt P36888, D835Y). Nature of the series: KinaseProfiler kinase activity assay. Format: biochemical. More on the design: purchased EMD Millipore Corp. (KinaseProfiler service). The conditions noted are these: ATP at Km.
Source text: as §3

The next series deals with Flt3 (Homo sapiens, UniProt P36888). Nature of the series: KinaseProfiler kinase activity assay. It is filed as biochemical. The settings on record: Flt3 wild-type; ATP at Km. Further details: purchased EMD Millipore Corp. (KinaseProfiler service).
Source text: as §3

A further series has as its target Flt4 (Homo sapiens, UniProt P35916). Kind of series: KinaseProfiler kinase activity assay. Format: biochemical. More on the design: purchased EMD Millipore Corp. (KinaseProfiler service). The conditions noted are these: ATP at Km.
Source text: as §3

In the next series the target is Ret (Homo sapiens, UniProt P07949). Kind of series: KinaseProfiler kinase activity assay. The settings on record: ATP at Km. Format: biochemical. More on the design: purchased EMD Millipore Corp. (KinaseProfiler service).
Source text: as §3

The target in a further series is Ret (V804L) (Homo sapiens, UniProt P07949, V804L). Kind of series: KinaseProfiler kinase activity assay. It is filed as biochemical. More on the design: purchased EMD Millipore Corp. (KinaseProfiler service). The settings on record: ATP at Km.
Source text: as §3

In a further series the target is Ret (V804M) (Homo sapiens, UniProt P07949, V804M). Kind of series: KinaseProfiler kinase activity assay. The settings on record: ATP at Km. Further details: purchased EMD Millipore Corp. (KinaseProfiler service). Format: biochemical.
Source text: as §3

A further series concerns the target Stk10 (Homo sapiens, UniProt O94804). Kind of series: KinaseProfiler kinase activity assay. Format: biochemical. Further details: purchased EMD Millipore Corp. (KinaseProfiler service). The conditions noted are these: Stk10 (LOK); ATP at Km.
Source text: as §3

The next series has as its target TEK (Homo sapiens, UniProt Q02763). Kind of series: KinaseProfiler kinase activity assay. Format: biochemical. Further details: purchased EMD Millipore Corp. (KinaseProfiler service). The conditions noted are these: ATP at Km.
Source text: as §3

The target in a further series is Wee1 (Homo sapiens, UniProt P30291). Nature of the series: KinaseProfiler kinase activity assay. It is filed as biochemical. More on the design: purchased EMD Millipore Corp. (KinaseProfiler service). The conditions noted are these: ATP at Km.
Source text: as §3

Another series has as its target Yes (Homo sapiens, UniProt P07947). Nature of the series: KinaseProfiler kinase activity assay. It is filed as biochemical. Further details: purchased EMD Millipore Corp. (KinaseProfiler service). The settings on record: ATP at Km.
Source text: as §3

Another series deals with Abl (T315I) (Homo sapiens, UniProt P00519, T315I). Kind of series: KinaseProfiler kinase activity assay. Format: biochemical. Further details: purchased EMD Millipore Corp. (KinaseProfiler service). The conditions noted are these: ATP at Km.
Source text: as §1, §2

The target in the next series is Abl(H396P) (Homo sapiens, UniProt P00519, H396P). Nature of the series: KinaseProfiler kinase activity assay. More on the design: purchased EMD Millipore Corp. (KinaseProfiler service). It is filed as biochemical. The conditions noted are these: ATP at Km.
Source text: as §1, §2

The target in another series is Abl(M351T) (Homo sapiens, UniProt P00519, M351T). Kind of series: KinaseProfiler kinase activity assay. Format: biochemical. More on the design: purchased EMD Millipore Corp. (KinaseProfiler service). The settings on record: ATP at Km.
Source text: as §1, §2

The target of another series is Abl(Q252H) (Homo sapiens, UniProt P00519, Q252H). Nature of the series: KinaseProfiler kinase activity assay. Format: biochemical. More on the design: purchased EMD Millipore Corp. (KinaseProfiler service). The settings on record: ATP at Km.
Source text: as §1, §2

In a further series the target is Abl(Y253F) (Homo sapiens, UniProt P00519, Y253F). Kind of series: KinaseProfiler kinase activity assay. Format: biochemical. The conditions noted are these: ATP at Km. Further details: purchased EMD Millipore Corp. (KinaseProfiler service).
Source text: as §1, §2

In a further series the target is Tyro3 (Homo sapiens, UniProt Q06418). Nature of the series: KinaseProfiler kinase activity assay. It is filed as biochemical. Further details: purchased EMD Millipore Corp. (KinaseProfiler service). The conditions noted are these: ATP at Km.
Source text: as §1, §2

The target of the next series is c-Kit (Homo sapiens, UniProt P10721). Nature of the series: KinaseProfiler kinase activity assay. It is filed as biochemical. Further details: purchased EMD Millipore Corp. (KinaseProfiler service).
The target in the next series is c-Kit (D816V) (Homo sapiens, UniProt P10721, D816V). Nature of the series: KinaseProfiler kinase activity assay. More on the design: purchased EMD Millipore Corp. (KinaseProfiler service). Format: biochemical.
Chain of c-Kit (D816V) (P10721 26-976 D816V): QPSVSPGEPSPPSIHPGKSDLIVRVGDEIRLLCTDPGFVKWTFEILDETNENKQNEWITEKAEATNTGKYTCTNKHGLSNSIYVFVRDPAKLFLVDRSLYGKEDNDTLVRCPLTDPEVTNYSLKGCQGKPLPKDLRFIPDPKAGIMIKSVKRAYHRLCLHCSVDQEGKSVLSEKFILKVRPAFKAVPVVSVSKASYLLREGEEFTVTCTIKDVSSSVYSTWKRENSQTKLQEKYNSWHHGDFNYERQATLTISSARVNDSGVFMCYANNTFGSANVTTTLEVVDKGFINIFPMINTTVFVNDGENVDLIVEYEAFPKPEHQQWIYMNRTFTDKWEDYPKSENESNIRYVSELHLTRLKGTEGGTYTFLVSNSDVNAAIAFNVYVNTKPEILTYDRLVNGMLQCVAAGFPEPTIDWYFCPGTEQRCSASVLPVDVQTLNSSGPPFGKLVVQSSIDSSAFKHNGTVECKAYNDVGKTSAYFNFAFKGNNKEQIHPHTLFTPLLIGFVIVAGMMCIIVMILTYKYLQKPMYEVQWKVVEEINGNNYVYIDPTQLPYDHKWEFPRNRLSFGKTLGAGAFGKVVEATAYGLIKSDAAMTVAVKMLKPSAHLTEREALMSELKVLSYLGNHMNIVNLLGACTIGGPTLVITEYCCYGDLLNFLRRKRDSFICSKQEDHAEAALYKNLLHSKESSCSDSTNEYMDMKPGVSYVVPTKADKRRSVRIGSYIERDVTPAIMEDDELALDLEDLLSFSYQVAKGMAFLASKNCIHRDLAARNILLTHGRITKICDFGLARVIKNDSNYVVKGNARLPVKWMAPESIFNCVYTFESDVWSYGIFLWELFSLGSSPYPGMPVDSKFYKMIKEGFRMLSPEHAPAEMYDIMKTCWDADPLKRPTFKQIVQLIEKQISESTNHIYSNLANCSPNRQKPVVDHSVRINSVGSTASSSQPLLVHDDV

Chain of TEK (Q02763 23-1124): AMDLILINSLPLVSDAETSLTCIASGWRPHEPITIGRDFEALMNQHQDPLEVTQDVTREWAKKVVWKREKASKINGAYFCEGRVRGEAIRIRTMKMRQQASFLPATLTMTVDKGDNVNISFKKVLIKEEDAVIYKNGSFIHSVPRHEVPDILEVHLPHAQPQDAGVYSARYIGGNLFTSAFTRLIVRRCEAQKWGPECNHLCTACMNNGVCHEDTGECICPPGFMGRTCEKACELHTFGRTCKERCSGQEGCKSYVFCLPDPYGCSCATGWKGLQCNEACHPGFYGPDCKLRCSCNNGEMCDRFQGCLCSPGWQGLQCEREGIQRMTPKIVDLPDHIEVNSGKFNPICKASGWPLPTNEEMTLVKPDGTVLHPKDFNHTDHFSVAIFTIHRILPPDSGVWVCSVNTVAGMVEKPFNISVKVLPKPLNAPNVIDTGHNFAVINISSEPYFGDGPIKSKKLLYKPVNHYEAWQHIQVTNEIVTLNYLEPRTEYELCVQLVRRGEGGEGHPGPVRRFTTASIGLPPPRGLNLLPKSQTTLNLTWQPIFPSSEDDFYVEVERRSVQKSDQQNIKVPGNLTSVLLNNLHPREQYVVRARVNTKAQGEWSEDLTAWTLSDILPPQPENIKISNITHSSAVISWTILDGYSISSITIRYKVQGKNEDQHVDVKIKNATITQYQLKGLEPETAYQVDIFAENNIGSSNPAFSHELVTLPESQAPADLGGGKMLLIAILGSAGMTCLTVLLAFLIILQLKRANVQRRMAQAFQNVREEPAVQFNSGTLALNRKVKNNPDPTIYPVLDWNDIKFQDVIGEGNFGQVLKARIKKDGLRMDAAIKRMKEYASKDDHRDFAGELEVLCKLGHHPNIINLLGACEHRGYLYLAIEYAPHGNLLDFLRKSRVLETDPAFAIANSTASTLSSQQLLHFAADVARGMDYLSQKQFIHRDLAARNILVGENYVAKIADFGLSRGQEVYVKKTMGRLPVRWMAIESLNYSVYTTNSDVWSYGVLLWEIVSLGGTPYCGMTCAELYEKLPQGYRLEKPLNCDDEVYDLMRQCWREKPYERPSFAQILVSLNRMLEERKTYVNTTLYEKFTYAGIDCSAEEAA
Chain of Ret (P07949 29-1114): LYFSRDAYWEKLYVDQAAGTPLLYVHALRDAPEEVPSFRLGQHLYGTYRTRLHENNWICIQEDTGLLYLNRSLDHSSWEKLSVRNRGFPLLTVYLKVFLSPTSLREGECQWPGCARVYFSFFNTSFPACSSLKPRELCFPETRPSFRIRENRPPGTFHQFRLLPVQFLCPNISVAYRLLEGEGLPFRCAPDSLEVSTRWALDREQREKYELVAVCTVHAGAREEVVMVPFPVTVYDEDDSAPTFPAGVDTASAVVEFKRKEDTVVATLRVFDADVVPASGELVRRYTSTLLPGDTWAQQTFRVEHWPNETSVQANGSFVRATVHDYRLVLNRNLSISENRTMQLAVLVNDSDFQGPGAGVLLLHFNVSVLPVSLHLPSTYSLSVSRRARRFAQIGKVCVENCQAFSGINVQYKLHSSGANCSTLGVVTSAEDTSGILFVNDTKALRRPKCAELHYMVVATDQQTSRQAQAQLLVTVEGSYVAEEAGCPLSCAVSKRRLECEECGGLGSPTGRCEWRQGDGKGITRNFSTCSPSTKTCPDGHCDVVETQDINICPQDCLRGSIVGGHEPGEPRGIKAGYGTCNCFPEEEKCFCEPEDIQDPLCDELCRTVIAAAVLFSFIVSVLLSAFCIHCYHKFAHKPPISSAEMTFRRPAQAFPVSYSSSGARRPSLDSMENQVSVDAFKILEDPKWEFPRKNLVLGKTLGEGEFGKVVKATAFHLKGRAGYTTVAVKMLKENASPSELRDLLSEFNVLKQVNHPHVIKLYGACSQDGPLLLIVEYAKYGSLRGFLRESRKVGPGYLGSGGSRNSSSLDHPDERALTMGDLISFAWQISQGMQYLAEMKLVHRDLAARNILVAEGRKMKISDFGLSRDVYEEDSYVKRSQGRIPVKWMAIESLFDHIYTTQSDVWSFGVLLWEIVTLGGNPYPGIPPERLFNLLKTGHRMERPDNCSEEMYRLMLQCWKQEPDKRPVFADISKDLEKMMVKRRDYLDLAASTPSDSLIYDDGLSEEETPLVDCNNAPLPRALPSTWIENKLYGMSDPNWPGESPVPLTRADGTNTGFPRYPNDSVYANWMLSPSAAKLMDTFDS
Chain of Flt1 (P17948 27-1338): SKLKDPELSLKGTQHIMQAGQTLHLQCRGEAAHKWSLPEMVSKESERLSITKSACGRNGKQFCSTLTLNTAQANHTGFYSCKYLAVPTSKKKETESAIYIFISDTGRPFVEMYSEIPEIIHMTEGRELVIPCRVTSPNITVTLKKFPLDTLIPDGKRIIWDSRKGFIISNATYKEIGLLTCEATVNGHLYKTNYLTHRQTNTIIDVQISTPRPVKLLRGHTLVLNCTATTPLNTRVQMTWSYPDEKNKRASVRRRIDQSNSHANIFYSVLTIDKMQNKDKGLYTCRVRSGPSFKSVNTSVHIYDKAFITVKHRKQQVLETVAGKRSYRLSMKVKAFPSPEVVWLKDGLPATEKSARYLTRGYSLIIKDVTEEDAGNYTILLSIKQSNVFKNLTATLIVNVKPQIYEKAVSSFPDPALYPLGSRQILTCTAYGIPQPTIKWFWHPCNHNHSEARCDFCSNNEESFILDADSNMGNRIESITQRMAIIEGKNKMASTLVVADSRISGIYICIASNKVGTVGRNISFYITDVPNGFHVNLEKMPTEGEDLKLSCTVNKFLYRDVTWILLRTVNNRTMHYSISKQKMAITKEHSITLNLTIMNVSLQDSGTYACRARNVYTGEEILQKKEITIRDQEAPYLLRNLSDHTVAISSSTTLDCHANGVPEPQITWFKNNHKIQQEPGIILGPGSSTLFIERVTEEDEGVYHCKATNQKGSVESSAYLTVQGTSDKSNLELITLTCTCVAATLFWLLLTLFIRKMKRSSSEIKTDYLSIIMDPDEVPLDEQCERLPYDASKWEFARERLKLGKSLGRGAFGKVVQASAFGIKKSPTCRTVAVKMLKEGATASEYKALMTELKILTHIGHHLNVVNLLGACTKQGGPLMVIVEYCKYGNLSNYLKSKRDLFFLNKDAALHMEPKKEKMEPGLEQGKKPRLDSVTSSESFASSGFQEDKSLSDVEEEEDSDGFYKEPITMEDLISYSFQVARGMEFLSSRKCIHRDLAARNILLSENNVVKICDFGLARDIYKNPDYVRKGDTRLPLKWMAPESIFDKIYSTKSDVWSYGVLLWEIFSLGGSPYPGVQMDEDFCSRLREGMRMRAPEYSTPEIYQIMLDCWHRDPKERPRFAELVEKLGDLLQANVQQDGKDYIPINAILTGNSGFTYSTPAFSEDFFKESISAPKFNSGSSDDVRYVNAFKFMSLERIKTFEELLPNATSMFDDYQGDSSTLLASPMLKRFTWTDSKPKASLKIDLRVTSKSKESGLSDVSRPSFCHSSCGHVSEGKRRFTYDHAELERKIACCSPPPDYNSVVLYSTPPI
Chain of Ret (V804M) (P07949 29-1114 V804M): as the sequence (P07949 29-1114) above, with V776M counted along it
Chain of Ret (V804L) (P07949 29-1114 V804L): as the sequence (P07949 29-1114) above, with V776L counted along it
Chain of c-Kit (P10721 26-976): as the sequence (P10721 26-976 D816V) above, with V791D counted along it
Procedure for c-Kit (D816V): KinaseProfiler™ assays (EMD Millipore Corp. Billerica, Mass., USA) are radioligand binding assays with purified or partially-purified human kinases. Most of the KinaseProfiler™ assays are conducted in 20 mM MOPS, 1 mM EDTA, 0.01% Brij-35, 5% Glycerol, 0.1% b-mercaptoethanol, 1 mg/mL BSA. The assay involves the transfer of ^32P from γ-^32P-ATP to the target peptide, followed by washing and trapping of the labeled peptide on a filter. The concentration of γ-^32P-ATP used was at the established Km for ATP.

`Nc1nc(Nc2ccc3c(c2)CC[C@@H](N2CCCC2)CC3)nn1-c1cc2c(nn1)-c1ccccc1CCC2` [Compound A, 1-(6,7-dihydro-5H-benzo[6,7]cyclohepta[1,2-c]pyridazine-3-yl)-N^3-(7-(S)-(pyrrolidin-1-yl)-6,7,8,9-tetrahydro-5H-benzo[7]annulene-2-yl)-1H-1,2,4-triazole-3,5-diamine]: the “binding to plasma protein” value in the series with plasma protein is more than 99%. The IC50 in series [1] was 16 to 32 nM; against Flt1, 40 nM; against Flt3 (D835Y), 13 nM; on Flt3, 122 nM; against Flt4 it was 41 nM; against Ret it was 38 nM and 22 nM. The IC50 against Ret (V804L) is 11 nM; against Ret (V804M) it was 21 nM; against Stk10, 22 nM; against TEK it was 30 nM and 41 nM; at Wee1, 32 nM; on Yes, 43 nM. Also, the IC50 was 4 nM against Abl (T315I); 22 nM against Abl(H396P); 32 nM against Abl(M351T); 16 nM against Abl(Q252H); 26 nM on Abl(Y253F); 413 nM against Tyro3. Besides, the IC50 was 1280 nM against c-Kit and 177 nM at c-Kit (D816V).

For the origin of these results see US9801880B2, “Use of kinase inhibitors” (BerGenBio AS, priority 2013, dated 2017).
